Reference: article PMC6937553, “Structural and biochemical studies of the glucuronoyl esterase OtCE15A illuminate its interaction with lignocellulosic components” (The Journal of Biological Chemistry, 2019)
One block for each molecule: values may come before it.

Assays:
OtCE15A [1] = biological target: T1, OtCE15A (Opitutus terrae, UniProt B1ZMF4); assay: X-ray crystal structure; type: binding
T1 construct: gene Oter_0116; recombinant in E. coli BL21 (DE3), purified as in earlier work; catalytic Ser-267, His-408, Glu-290, Asp-356
T1 sequence (B1ZMF4 entry or part of it): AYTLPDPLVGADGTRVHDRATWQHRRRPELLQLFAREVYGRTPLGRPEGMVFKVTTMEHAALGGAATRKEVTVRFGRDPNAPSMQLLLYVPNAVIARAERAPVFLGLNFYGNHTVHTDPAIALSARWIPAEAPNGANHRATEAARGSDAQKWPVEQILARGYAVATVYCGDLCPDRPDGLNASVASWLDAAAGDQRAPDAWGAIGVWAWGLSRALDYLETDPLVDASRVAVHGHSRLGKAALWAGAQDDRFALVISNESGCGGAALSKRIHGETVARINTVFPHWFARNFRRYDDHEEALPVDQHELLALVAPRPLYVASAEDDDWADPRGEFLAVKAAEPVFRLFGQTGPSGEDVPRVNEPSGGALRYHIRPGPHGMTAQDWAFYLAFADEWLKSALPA

OtCE15A [2] = biological target: T1, OtCE15A; assay: continuous coupled esterase assay (K-URONIC kit); type: biochemical
Text: (§1) continuous coupled esterase assay (K-URONIC kit) on OtCE15A

OtCE15A [3] = biological target: T2, OtCE15A (Opitutus terrae, UniProt B1ZMF4, L269Y); assay: continuous coupled esterase assay (K-URONIC kit); type: biochemical; conditions: substrate inhibition constant
T2 construct: gene Oter_0116; recombinant in E. coli BL21 (DE3), purified as in earlier work; catalytic Ser-267, His-408, Glu-290, Asp-356
T2 sequence (B1ZMF4 entry or part of it L269Y): as the sequence (B1ZMF4 entry or part of it) above, with L237Y counted along it
Text: as §1

OtCE15A [4] = biological target: T1, OtCE15A; assay: inhibition of BnzGlcA hydrolysis, coupled continuous assay (K-URONIC kit); type: biochemical; conditions: BnzGlcA as substrate (3.5 mM or 350 μM)
OtCE15A [5] = biological target: T1, OtCE15A; assay: as above; type: biochemical; conditions: BnzGlcA as substrate (3.5 mM or 350 μM); remark: listed apart in the source
OtCE15A [6] = biological target: T1, OtCE15A; assay: as above; type: biochemical; conditions: competitive; BnzGlcA as substrate

SMILES: O=C(O)[C@H]1OC(O)[C@H](O)[C@@H](O)[C@@H]1O (some centres unmarked) [GlcA, glucuronate]
X-ray crystal structure (OtCE15A [1]; active site): We determined the structure of the WT OtCE15A in complex with the product GlcA

Km (OtCE15A [2]): 5.31 ± 0.51 mM
SMILES: COC(=O)[C@H]1OC(O)[C@H](O)[C@@H](O)[C@H]1O (some centres unmarked) [MeGalA, methyl galacturonoate]

Ksi (OtCE15A [3]): 34.5 ± 11.9 mM
SMILES: COC(=O)[C@H]1OC(O)[C@H](O)[C@@H](O)[C@@H]1O (some centres unmarked) [MeGlcA, methyl glucuronoate]

SMILES: CO[C@H]1[C@H](O)[C@@H](O)[C@@H](O[C@H]2[C@H](O[C@@H]3COC(O)[C@H](O)[C@H]3O)OC[C@@H](O[C@@H]3OC[C@@H](O)[C@H](O)[C@H]3O)[C@@H]2O)O[C@@H]1C(=O)O (stereo partly drawn) [XUX, 2^3-(4-O-methyl-α-D-glucuronyl)-xylotriose]
X-ray crystal structure (OtCE15A [1]; active site, no variant named, taken as wild type): OtCE15A in complex with the glucuronoxylan oligosaccharide XUX (PDB code 6T0I)

% inhibition at up to 250 mM (OtCE15A [4]): < 10%
SMILES: OC[C@H]1OC(O)[C@H](O)[C@@H](O)[C@@H]1O (some centres unmarked) [glucose]

% reduction of activity at 100 mM (OtCE15A [5]): ~ 50%
SMILES: OC1OC[C@@H](O[C@@H]2OC[C@@H](O)[C@H](O)[C@H]2O)[C@H](O)[C@H]1O (some centres unmarked) [xylobiose]
X-ray crystal structure (OtCE15A [1]; active site and second site about 25 Å away, no variant named, taken as wild type): showing the two xylobiose-binding sites (PDB code 6SYU)

Ki (OtCE15A [6]): 48.1 mM
SMILES: OC1OC[C@@H](O)[C@H](O)[C@H]1O (some centres unmarked) [xylose]
